Our source for the Normal melting temperature values is the NIST ThermoML archive (doi:10.1021/je201193d).

Molecules are shown by their SMILES. ± gives the expanded uncertainty stated by the source.

For this data set the following is noted: Crystal; visual observation.

On to `CCC(=O)O` [propanoic acid], for which the Normal melting temperature was -20.60 ± 0.39 °C.

Turning to `C=CC(=O)O` [propenoic acid], the Normal melting temperature is 12.8 ± 0.39 °C.
